Peptide text beside a SMILES is read from it.

The test system of data set [1] is J774.2 murine macrophages. In kind it is cell-based, mouse. On the procedure: To measure cell metabolic activity, thiazolyl blue tetrazolium bromide (MTT, Sigma-Aldrich) was added to cells at 0.4 mg/mL in complete medium for 4 hours at 37° C. The plates were then aspirated and 100 µL of DMSO added for 10-15 minutes at room temperature on a plate shaker at low speed setting. The plates were run on an Epoch plate reader using absorbance at 560 nm corrected for background at 670 nm. Flow cytometry analysis for iNOS expression followed the methods described above.

In a further data set the test system is J774.2 mouse macrophages. In words: In Vitro Cholesterol Efflux Assay (Example 1). In kind it is cell-based. The note with it: two- and threefold higher concentrations of LXR.
A short description of data set [2]: Dialysis LXR agonist release study. The note with it: non-encapsulated LXR agonist, PBS, within the first hour. In kind it is physicochemical. On the procedure:
LXR-40% ApoA1 PA (1 mM with respect to PA) was dissolved in PBS. […] To each dialysis cup 0.1 mL of sample was added with one cup used for each time-point to be measured. All samples were dialyzed against 4 mL of PBS at 37° C. The total contents of one dialysis cup were isolated and kept at 4° C. until measurement at each time point. […] For LC-MS, a 5 to 95% acetonitrile (0.1% formic acid) gradient was run over 30 min with mobile phase containing 0.1% NH40H. A total ion chromatogram was obtained in MS mode and integrated using Mass Hunter Agilent software. The peak area corresponding to [M-H]− for GW3965 was recorded for each sample in negative ion mode and normalized according to the volume of sample present. Percent encapsulation was determined as follows:
[formula] where NPA is the normalized peak area corresponding to LXR agonist (normalized for solution volume).

Data set [3] is described as follows: Solubility of LXR agonist without PA. In kind it is physicochemical. The note with it: deionized water or PBS.
The next data set has as its system LDLR KO mice. In words: Atherosclerosis treatment study. In kind it is in vivo, mouse. The note with it: both sexes. On the procedure:
Mouse model of atherosclerosis: To study atherosclerosis, the LDLR KO mouse was used. LDLR KO mice are fed a high fat “western” diet (Teklad TD.88137) starting at 4 weeks of age. This diet consists of 20% fat, 0.2% cholesterol, and 34% high sucrose. LDLR KO mice fed this diet typically develop severe hypercholesterolemia (>800 mg/dL) and hypertriglyceridemia (>300 mg/dL) after only 2 weeks. By 12 weeks on the high fat diet, atherosclerotic lesions are detected in the aortic root and aortic arch on cryosections stained with Oil Red O (Sigma). Atherosclerosis was quantified in the aortic root as a percentage of the aortic root by taking the atherosclerotic area divided by the total aortic root area. Measurements were made with ImageJ software. All protocols for the animal model and procedures in this manuscript were approved by Northwestern University's Institutional Animal Care and Use Committee.
(§1) Blood samples were collected at the end of the treatment study for toxicology analysis. Mice were euthanized three days after their 16th treatment.
(§2) Tissue processing and imaging: Mice were sacrificed and euthanized under inhaled isoflurane anesthesia by diaphragm disruption and exsanguination. Phlebotomy was performed through direct right ventricular cardiac puncture using a 1 mL syringe and 25 G needle. Perfusion was performed through left ventricular cardiac puncture with 10 mL PBS and 10 mL 10% sucrose solution. The lungs, liver, spleen, kidney, aortic root, aortic arch, and descending aorta were harvested and stored in 10% sucrose for 20 minutes. Organs and vessels were then flash-frozen in Optimal Cutting Temperature embedding medium 4583 (Tissue-Tek®) with liquid nitrogen. Frozen specimens were stored at −80° C. and cryosectioned at […]. Confocal microscopy was performed on a Nikon AIR microscope. Two sets of images were acquired with a 10× Plan Fluor NA 0.3 objective. PAs were identified through quantification of the Alexa Fluor® 546 conjugated dye with 561 nm excitation and a 600/50 nm emission filter.
Images were acquired with spectral detection and spectrally unmixed to accurately separate green autofluorescence from the red Alexa Fluor® 546 signal. Brightfield and fluorescent microscopy were performed using a Zeiss Axio Imager.A2 microscope with AxioVision software (release 4.8.2, 06-2010). All confocal and fluorescent sections were mounted with ProGold Diamond mounting media (Sigma). Slides were stained with Oil Red O to image and quantify atherosclerosis under brightfield microscopy. The elastic laminae were identified using the green fluorescent protein (GFP) filter with an exposure time of 3500 ms under 5× magnification. Nanofibers were identified in the aortic root by presence of Alexa Fluor® 546 on the Cy3 filter under 5-10× magnification, and in the internal organs under 20× magnification. Fluorescent pixel quantification in the aortic root and within organs was performed with ImageJ software.
(§3) Statistics: The effect of treatments and sex on atherosclerosis progression in mice was analyzed using one- or two-factor analysis of variance (ANOVA) followed by a post-hoc student's t-test. The toxicological effects of treatments were also analyzed using two-factor ANOVA and a post-hoc student's t-test. Toxicological effects of treatments on liver proteins AST, ALT, and ALP were further analyzed using ordinal logistic regression models of likelihood ratio tests, followed by a post-hoc Wald test

Data set [4] can be described thus: Treatment study serum chemistry (toxicology analysis). In kind it is in vivo, mouse. The note with it: for Alanine Aminotransferase (ALT) / Alkaline phosphatase / Aspartate Aminotransferase (AST) / Bicarbonate and CO2 / Bilirubin - Conjugated / Bilirubin - Unconjugated / Blood Urea Nitrogen / Cholesterol / Creatine / Creatine Kinase / Globulin / Glucose / Potassium / Sodium / Total Bilirubin / Total Protein: group median, end of 8-week treatment. On the procedure: as §1, §2, §3

Another data set addresses T1, human recombinant MMP2 (Homo sapiens, UniProt P08253).
T1 construct: purchased R&D systems
T1 sequence (P08253 110-660): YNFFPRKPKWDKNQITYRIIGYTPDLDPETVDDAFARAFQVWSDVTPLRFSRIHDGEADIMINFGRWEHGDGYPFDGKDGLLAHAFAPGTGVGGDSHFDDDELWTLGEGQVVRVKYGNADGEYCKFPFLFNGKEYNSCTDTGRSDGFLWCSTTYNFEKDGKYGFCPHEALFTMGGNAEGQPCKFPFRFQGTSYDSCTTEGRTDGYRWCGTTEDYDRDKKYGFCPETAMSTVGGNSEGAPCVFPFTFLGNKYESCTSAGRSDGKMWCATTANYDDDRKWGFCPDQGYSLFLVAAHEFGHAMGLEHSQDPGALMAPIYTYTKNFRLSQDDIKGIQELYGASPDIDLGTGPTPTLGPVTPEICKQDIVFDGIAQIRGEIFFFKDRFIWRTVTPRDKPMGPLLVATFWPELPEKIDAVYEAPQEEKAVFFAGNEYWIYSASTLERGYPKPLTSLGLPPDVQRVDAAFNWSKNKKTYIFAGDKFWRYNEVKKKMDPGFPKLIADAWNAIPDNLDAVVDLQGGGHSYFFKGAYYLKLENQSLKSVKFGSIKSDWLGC
Kind of data set: MMP-Ac2-26 PA cleavage assay. In kind it is biochemical. The note with it: 40 nM MMP2, 24 hours, 37° C. As for the experimental part:
ROS-Ac2-26 and MMP-Ac2-26 PA cleavage assays: To examine ROS-mediated cleavage, 3-morpholinosydnonimine hydrochloride (SIN-1, Sigma-Aldrich or Abcam) was used. ROS-Ac2-26 PAs were reconstituted to 0.5 mM in phosphate buffer and treated with 100 μM SIN-1 for 24 hours at 37° C. For MMP2/9-mediated cleavage, human recombinant MMP2 (R&D systems, carrier-free) was used, activated with freshly prepared 1 mMp-aminophenylmercuric acetate (APMA, Sigma-Aldrich) for one hour at 37° C. The APMA disrupts the cysteine-zinc bond in MMP2 responsible for enzyme latency by liberation of the sulfhydryl group. 10% MMP-Ac2-26 PA co-assemblies were prepared at 0.5 mM in a cleavage buffer containing 50 mM tricine, 50 mM NaCl, 50 μM ZnCl2, and 10 mM CaCl2) at pH 7.4, and treated with 40 nM human recombinant MMP2 for 24 hours at 37° C. At the end of each time point, the samples were stored at −20° C., effectively stopping the cleavage reactions. Samples were analyzed at room temperature, 0.04-0.3 mg/mL with 0.1% NH4OH using a ThermoFisher Q Exactive HIF-X (ThermoFisher, Bremen, Germany) mass spectrometer coupled with a Waters Acquity H-class liquid chromatograph system. […] All measurements were recorded at a resolution setting of 120,000. […] Injection volume for all samples was […]. Data was analyzed on Xcalibur (ThermoFisher, Breman, Germany).

Take `CC[C@H](C)[C@H](NC(=O)[C@H](Cc1ccccc1)NC(=O)[C@H](Cc1c[nH]c2ccccc12)NC(=O)[C@H](C)NC(=O)[C@H](CCC(N)=O)NC(=O)[C@H](CCCCN)NC(=O)[C@H](CC(C)C)NC(=O)[C@H](Cc1ccccc1)NC(=O)[C@H](CCC(=O)O)NC(=O)[C@H](CO)NC(=O)[C@@H](NC(=O)[C@H](CCSC)NC(=O)[C@H](C)NC(C)=O)C(C)C)C(=O)N[C@@H](CCC(=O)O)C(=O)N[C@@H](CC(N)=O)C(=O)N[C@@H](CCC(=O)O)C(=O)N[C@@H](CCC(=O)O)C(=O)N[C@@H](CCC(N)=O)C(=O)N[C@@H](CCC(=O)O)C(=O)N[C@@H](Cc1ccc(O)cc1)C(=O)N[C@H](C(=O)N[C@@H](CCC(N)=O)C(=O)N[C@H](C(=O)N[C@H](C(=O)N[C@@H](CCCCN)C(=O)O)C(C)C)[C@@H](C)O)C(C)C` [Ac2-26] (Ac-AMVSEFLKQAWFIENEEQEYVQTVK-OH; N-terminus and C-terminus assumed): the “cellular metabolism (MTT) in comparison to the stimulated control” value in data set [1] is recorded as “did not significantly affect cellular metabolism”.

As to `Cl.O=C(O)Cc1cccc(OCCCN(Cc2cccc(C(F)(F)F)c2Cl)CC(c2ccccc2)c2ccccc2)c1` [LXR, GW3965], in the data set with J774.2 mouse macrophages, the “LXR effects upon macrophage efflux” value is “no significant increases”. The “release across the dialysis membrane” value in data set [2] was “up to 85%”. In addition, the solubility entry in data set [3] was “insoluble”. Moreover, the “reversal of atherosclerosis from baseline levels” value in the data set with LDLR KO mice was “approximately 5%”. Besides, the “atherosclerosis progression in comparison to the PBS control” value in the data set with LDLR KO mice (twice per week over eight weeks, percent of atherosclerosis in the aortic root) is listed as “significantly decreased”. In data set [4] (All mice), the “Alanine Aminotransferase (ALT)” value stood at 40 U/L; the Alkaline phosphatase is reported as 65.5 U/L; the “Aspartate Aminotransferase (AST)” value was 135 U/L; the “Bicarbonate and CO2” value amounted to 12 mmol/L. Also, in data set [4] (All mice), the “Bilirubin - Conjugated” value is reported as 0.05 mg/dL, the “Bilirubin - Unconjugated” value is listed as 0.3 mg/dL, the “Blood Urea Nitrogen” value turned out to be 23 mg/dL and the Cholesterol amounted to 2000.5 mg/dL. For the same compound, in data set [4] (All mice), the Creatine is recorded as 0 U/L, the “Creatine Kinase” value is 137.5 U/L, the Globulin came out at 2.7 g/dL and the Glucose is on record as 237 mg/dL. Further, in data set [4] (All mice), the Potassium was 5.2 mmol/L, the Sodium was determined as 139.5 mmol/L, the “Total Bilirubin” value is 0.4 mg/dL and the “Total Protein” value was 5.45 g/dL. In data set [4] (Females), the “Alanine Aminotransferase (ALT)” value is listed as 33 U/L; the Alkaline phosphatase came to 73 U/L; the “Aspartate Aminotransferase (AST)” value is 142 U/L; the “Bicarbonate and CO2” value stood at 10 mmol/L. In addition, in data set [4] (Females), the “Bilirubin - Conjugated” value came out at 0 mg/dL, the “Bilirubin - Unconjugated” value came to 0.5 mg/dL, the “Blood Urea Nitrogen” value was 21.5 mg/dL and the Cholesterol is on record as 2029 mg/dL. In data set [4] (Females), the Creatine turned out to be 0 U/L, the “Creatine Kinase” value is listed as 136 U/L, the Globulin is on record as 2.3 g/dL and the Glucose was 203 mg/dL. Moreover, in data set [4] (Females), the Potassium turned out to be 4.6 mmol/L, the Sodium is reported as 140 mmol/L, the “Total Bilirubin” value worked out at 0.6 mg/dL and the “Total Protein” value worked out at 5.4 g/dL. In addition, in data set [4] (Males), the “Alanine Aminotransferase (ALT)” value was 47 U/L; the Alkaline phosphatase was 41 U/L; the “Aspartate Aminotransferase (AST)” value is 102 U/L; the “Bicarbonate and CO2” value is given as 14 mmol/L. Further, in data set [4] (Males), the “Bilirubin - Conjugated” value is 0.1 mg/dL, the “Bilirubin - Unconjugated” value was determined as 0.2 mg/dL, the “Blood Urea Nitrogen” value stood at 24 mg/dL and the Cholesterol is listed as 1972 mg/dL. In data set [4] (Males), the Creatine turned out to be 0 U/L, the “Creatine Kinase” value stood at 138 U/L, the Globulin amounted to 2.8 g/dL and the Glucose was determined as 259 mg/dL. In data set [4] (Males), the Potassium was found to be 5.2 mmol/L, the Sodium is on record as 139 mmol/L, the “Total Bilirubin” value is given as 0.3 mg/dL and the “Total Protein” value was found to be 5.5 g/dL. Moreover, the “AST levels in comparison to the PBS control” value in data set [4] (female mice) is “no significant differences”. Moreover, the “aspartate aminotransferase (AST) in the blood in comparison to PBS” value in data set [4] (male mice) is “significantly elevated levels of aspartate aminotransferase (AST)”.

For “C16-V2A2 (SEQ ID NO: 8)-E2-GGGPQGIWGQGK (SEQ ID NO: 1)-AMVSEFLKQAWFIENEEQEYVQTVK (SEQ ID NO: 7)-NH2 (C16-VVAAEEGGGPQGIWGQGKAMVSEFLKQAWFIENEEQEYVQTVK-NH2) [MMP-Ac2-26 PA]”, the “Ac2-26 release from PA nanofibers” value in the data set with human recombinant MMP2 was “released Ac2-26”.

The values above are taken from patent publication US12214076B2, “Drug delivery vehicles for atherosclerosis nanomedicine” (Northwestern University, priority 2019, dated 2025).
